Source: ChEMBL document CHEMBL1154684, “Cytotoxicity of new n-butylamino and sulfur-containing derivatives of polyfluorinated 1,4-naphthoquinone” (Eur J Med Chem, 2010)
In brackets after ≈: the same amount, converted by molar mass. Activity calls are given as the source filed them. No cut-off for these calls is given here.

Experiments:
Salmonella typhimurium [1] = experiment: Antimutagenic activity in Salmonella Typhimurium TA102 assessed as inhibition of H2O2-induced mutagenesis at 0.05 to […] after 48 hrs by Ames test; assay type: functional, organism-based; settings: Salmonella enterica subsp. enterica serovar Typhimurium
RPMI-8226 [2] = experiment: Cytotoxicity against human RPMI8226 at 25 ug/ml after 72 hrs by MTT assay; assay type: functional; settings: RPMI-8226, 72 h
MCF7 [3] = experiment: Cytotoxicity against human MCF7 at 25 ug/ml after 72 hrs by MTT assay; assay type: functional, cell-based; settings: MCF7, 72 h
Salmonella typhimurium [4] = experiment: Antimutagenic activity in Salmonella Typhimurium TA102 assessed as inhibition of H2O2-induced mutagenesis at 23.5 uM after 48 hrs by Ames test; assay type: functional, Salmonella enterica subsp. enterica serovar Typhimurium; settings: Salmonella enterica, TA102, 48 h
RPMI-8226 [5] = experiment: Cytotoxicity against human RPMI8226 after 72 hrs by MTT assay; assay type: functional, cell-based
[6] = Cytotoxicity against mouse LMTK at 173 uM after 72 hrs by MTT assay
MCF7 [7] = experiment: Cytotoxicity against human MCF7 after 72 hrs by MTT assay; assay type: functional, cell-based
Salmonella typhimurium [8] = experiment: Antimutagenic activity in Salmonella Typhimurium TA102 assessed as inhibition of H2O2-induced mutagenesis at 26.9 uM after 48 hrs by Ames test; assay type: functional, organism-based, Salmonella enterica subsp. enterica serovar Typhimurium

| SMILES | Activity (Salmonella typhimurium [1]) | inhibition at 25 µg/mL (RPMI-8226 [2]) [%] | inhibition at 25 µg/mL (MCF7 [3]) [%] | inhibition at 23.5 µM (Salmonella typhimurium [4]) [%] | IC50 (RPMI-8226 [5]) [µg/mL] | IC50 [6] | IC50 (MCF7 [7]) [µg/mL] | Inhibition (Salmonella typhimurium [8]) [%] |
| --- | --- | --- | --- | --- | --- | --- | --- | --- |
| CCCCNC1=C(F)C(=O)c2c(F)c(NCCCC)c(F)c(NCCCC)c2C1=O | Active | 30 | 45 | 55 |  |  |  |  |
| CC1=C(SCCO)C(=O)c2c(F)c(F)c(F)c(F)c2C1=O |  |  |  |  | 14.8 (≈ 46.2 µM) | Not Active | 173 (≈ 540 µM) |  |
| CCCCNC1=C(F)C(=O)c2c(F)c(NCCCC)c(F)c(F)c2C1=O | Active | 17 | 10 |  |  |  |  | 81 |
